Measurements as given in patent US20260217698A1 (BEYANG THERAPEUTICS CO., LTD., priority 2022, published 2026).
Converted amounts (≈) assume the structure as drawn.

Tests used:
TIE2 = target: T1, TIE2 (Homo sapiens, UniProt Q02763); experiment: Kinase inhibition, Mobility Shift Assay/IMAP, TIE2; assay type: biochemical
T1 construct: purchased BPS 40270
Summary of the method: (§1)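 Substrate conversion (phosphorylated vs non-phosphorylated) read by mobility shift on Caliper EZ Reader II and converted to % inhibition relative to no-enzyme and DMSO controls. IC50 fitted from % inhibition versus log compound concentration.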

EGFR = target: T2, EGFR (Homo sapiens, UniProt P00533); experiment: Kinase inhibition, Mobility Shift Assay/IMAP, EGFR; assay type: biochemical
T2 construct: purchased Carna 08-115
T2 sequence (P00533 669-1210 limits assumed): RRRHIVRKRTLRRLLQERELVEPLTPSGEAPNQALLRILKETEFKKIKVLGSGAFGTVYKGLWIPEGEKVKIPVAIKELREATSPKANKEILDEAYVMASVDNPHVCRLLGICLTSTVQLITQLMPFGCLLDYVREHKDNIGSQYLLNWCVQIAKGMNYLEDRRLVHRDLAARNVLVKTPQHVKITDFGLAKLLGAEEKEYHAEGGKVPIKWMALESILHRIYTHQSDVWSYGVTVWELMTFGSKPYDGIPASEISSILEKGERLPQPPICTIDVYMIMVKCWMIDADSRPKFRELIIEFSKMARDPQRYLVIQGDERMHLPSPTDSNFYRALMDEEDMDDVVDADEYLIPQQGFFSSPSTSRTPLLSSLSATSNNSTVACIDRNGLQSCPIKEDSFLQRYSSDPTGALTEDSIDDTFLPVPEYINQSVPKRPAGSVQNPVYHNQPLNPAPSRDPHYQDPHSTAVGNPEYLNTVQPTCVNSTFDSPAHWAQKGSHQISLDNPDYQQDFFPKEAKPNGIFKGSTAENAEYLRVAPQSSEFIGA
Summary of the method: as §1

HUVEC cells = experiment: Inhibition of VEGF-induced HUVEC cell proliferation, CellTiter Glo; assay type: cell-based; conditions: Homo sapiens, 20 ng/ml VEGF, 72 hours
Excerpt: In this experiment, human umbilical vein endothelial cells (HUVEC, Lonza) were used. HUVEC cells are primary cells isolated from umbilical veins. This cell line is a model system to study the functions of endothelial cells. Endothelial cell proliferation in response to VEGF is crucial to the pathological angiogenesis associated with conditions such as tumor development and ocular neovascular diseases.
In this assay, a luciferase bioluminescence assay (CellTiter GLU™, Promega) is used to determine the inhibitory activity of the compounds against VEGF-induced HUVEC cell proliferation and viability. CellTiter GLO™ is a homogeneous method for quantifying the count of viable cells in culture based on ATP, an indicator of metabolically active cells. In this assay, the compound was incubated with HUVEC cells for 72 hours, and then the inhibitory activity of the resulting compound against VEGF-induced HUVEC cell proliferation was measured on the En Vision plate reader.
With the RPMI-1640 medium (plus 5% FBS, 1% Penicillin-Streptomycin) used for the HUVEC cell proliferation experiment, add a cell suspension to a 96-well plate at 100 μl per well, i.e., 4000 HUVEC cells/well, and incubate them overnight in a 5% CO2 incubator at 37° C. (serum starvation). After 24 hours, add 96 μl of the experimental medium to the cell wells, and then add 2 μl of the compound to the cell wells; and after 1 hour following the addition of the compound, add 2 μl of 2 μg/ml VEGF to the cell wells. Add 0.1% DMSO and 20 ng/ml VEGF to cell wells to serve as high-reading control wells. Take cell-free wells with only medium as low-reading control wells. […] After 72 hours of incubation of the cell plate in the incubator, hold the cell plate to be tested at room temperature and discard 100 μl of medium per well. Add 100 μl of CTG reagent (CellTiter Glo kit) per well, oscillate the cell plate in a fast oscillator for 3 minutes, and keep the cell plate at room temperature in the dark for 30 minutes. Read the chemiluminescence signal value with the Envision instrument.
X indicates the log value of compound concentration, Y indicates the inhibition rate (% inhibition), Top indicates the readout of the high-reading control well.

melanin = experiment: Binding capacity of compounds to melanin; assay type: in vitro ADME, cuttlefish (Sepia officinalis); conditions: cuttlefish (Sepia officinalis), melanin suspension (1 mg/mL); 1 mg/mL melanin in PBS pH 7.4, 2 μM compound, 2 h at 37° C.; read-out: Fu % (percentage of free drug)
Summary of the method: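 Compound (2 μM final) incubated with washed Sepia melanin (1 mg/mL, PBS pH 7.4) 2 h at 37° C with shaking; PBS with 0.1% BSA served as blank. Supernatants quantified by LC-MS/MS; bound fraction Fb derived from melanin versus blank concentration.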

VEGFR2 = VEGFR2 (Homo sapiens, UniProt P35968); experiment: Kinase inhibition, Mobility Shift Assay/IMAP, VEGFR2; assay type: biochemical; design: purchased Carna 08-191
Chain of VEGFR2 (P35968 790-1356 limits assumed): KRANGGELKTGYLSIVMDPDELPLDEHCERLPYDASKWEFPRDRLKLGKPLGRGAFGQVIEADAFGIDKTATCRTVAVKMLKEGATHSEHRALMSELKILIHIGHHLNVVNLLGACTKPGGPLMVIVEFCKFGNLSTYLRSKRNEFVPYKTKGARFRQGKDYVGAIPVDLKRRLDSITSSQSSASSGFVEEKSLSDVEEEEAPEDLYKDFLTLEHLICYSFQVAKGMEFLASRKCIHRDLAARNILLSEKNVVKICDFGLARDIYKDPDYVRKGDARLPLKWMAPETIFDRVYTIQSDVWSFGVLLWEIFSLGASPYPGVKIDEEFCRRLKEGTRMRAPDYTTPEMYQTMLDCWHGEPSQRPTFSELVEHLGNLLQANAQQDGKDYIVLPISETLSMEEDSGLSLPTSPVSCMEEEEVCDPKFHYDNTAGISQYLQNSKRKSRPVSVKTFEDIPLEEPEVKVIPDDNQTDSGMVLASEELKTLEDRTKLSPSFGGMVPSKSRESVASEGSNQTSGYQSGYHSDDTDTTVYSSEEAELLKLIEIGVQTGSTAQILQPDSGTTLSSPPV
Summary of the method: as §1

VEGFR1 = target: T3, VEGFR1 (Homo sapiens, UniProt P17948); experiment: Kinase inhibition, Mobility Shift Assay/IMAP, VEGFR1; assay type: biochemical
T3 construct: purchased Invitrogen PR6731B
T3 sequence (P17948 27-1338): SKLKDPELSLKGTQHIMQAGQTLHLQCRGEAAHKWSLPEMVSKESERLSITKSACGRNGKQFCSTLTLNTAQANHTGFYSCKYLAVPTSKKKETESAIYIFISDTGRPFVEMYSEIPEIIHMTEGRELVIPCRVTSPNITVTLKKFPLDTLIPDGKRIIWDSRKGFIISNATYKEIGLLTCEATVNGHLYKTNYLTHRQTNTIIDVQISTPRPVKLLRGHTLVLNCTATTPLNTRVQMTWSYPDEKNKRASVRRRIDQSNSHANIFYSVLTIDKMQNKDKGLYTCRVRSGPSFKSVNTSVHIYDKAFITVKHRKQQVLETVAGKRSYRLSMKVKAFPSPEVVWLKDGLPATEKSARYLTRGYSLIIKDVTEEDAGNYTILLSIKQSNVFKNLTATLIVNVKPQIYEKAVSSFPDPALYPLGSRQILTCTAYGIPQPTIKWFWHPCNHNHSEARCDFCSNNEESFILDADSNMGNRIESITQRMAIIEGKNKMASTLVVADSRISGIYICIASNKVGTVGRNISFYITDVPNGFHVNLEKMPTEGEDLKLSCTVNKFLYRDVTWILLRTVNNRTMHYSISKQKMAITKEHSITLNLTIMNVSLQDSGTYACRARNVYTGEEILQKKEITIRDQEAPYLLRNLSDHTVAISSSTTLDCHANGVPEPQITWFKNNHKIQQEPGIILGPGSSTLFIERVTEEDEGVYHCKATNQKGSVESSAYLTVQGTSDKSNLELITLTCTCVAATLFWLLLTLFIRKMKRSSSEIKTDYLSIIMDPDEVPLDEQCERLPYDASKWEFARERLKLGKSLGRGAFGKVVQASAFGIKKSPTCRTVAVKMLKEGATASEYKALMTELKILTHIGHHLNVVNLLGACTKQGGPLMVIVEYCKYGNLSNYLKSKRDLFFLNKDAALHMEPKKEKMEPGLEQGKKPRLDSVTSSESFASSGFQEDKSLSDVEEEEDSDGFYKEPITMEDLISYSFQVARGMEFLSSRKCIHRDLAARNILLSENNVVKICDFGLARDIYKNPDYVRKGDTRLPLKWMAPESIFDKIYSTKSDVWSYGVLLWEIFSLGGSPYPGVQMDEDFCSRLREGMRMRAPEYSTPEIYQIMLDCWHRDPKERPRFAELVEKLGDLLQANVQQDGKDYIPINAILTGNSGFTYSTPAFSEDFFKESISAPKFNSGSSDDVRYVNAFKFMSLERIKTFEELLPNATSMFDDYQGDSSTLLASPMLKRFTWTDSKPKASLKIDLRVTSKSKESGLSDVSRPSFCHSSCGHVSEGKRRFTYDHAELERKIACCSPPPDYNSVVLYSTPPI
Excerpt: (§2) This assay directly monitored the ability of compounds to inhibit kinase phosphorylation by measuring non-phosphorylated and phosphorylated substrates in kinase reactions by using Mobility Shift Assays/IMAP™ analysis.
(§3) Read the conversion ratio data on CaliperEZ Reader II. Convert conversion rates into inhibition ratio data.
(§4) “Min” indicates the readout of the control well without the addition of enzymes; and “Max” indicates the readout of the control well with the addition of DMSO Fit IC50 values with XL Fit excel add-in version […].
(§5) X indicates the log value of compound concentration, and Y indicates the inhibition ratio (% inhibition).

VEGFR3 = target: T4, VEGFR3 (Homo sapiens, UniProt P35916); experiment: Kinase inhibition, Mobility Shift Assay/IMAP, VEGFR3; assay type: biochemical
T4 construct: purchased Invitrogen PV4129
T4 sequence (P35916 25-1363): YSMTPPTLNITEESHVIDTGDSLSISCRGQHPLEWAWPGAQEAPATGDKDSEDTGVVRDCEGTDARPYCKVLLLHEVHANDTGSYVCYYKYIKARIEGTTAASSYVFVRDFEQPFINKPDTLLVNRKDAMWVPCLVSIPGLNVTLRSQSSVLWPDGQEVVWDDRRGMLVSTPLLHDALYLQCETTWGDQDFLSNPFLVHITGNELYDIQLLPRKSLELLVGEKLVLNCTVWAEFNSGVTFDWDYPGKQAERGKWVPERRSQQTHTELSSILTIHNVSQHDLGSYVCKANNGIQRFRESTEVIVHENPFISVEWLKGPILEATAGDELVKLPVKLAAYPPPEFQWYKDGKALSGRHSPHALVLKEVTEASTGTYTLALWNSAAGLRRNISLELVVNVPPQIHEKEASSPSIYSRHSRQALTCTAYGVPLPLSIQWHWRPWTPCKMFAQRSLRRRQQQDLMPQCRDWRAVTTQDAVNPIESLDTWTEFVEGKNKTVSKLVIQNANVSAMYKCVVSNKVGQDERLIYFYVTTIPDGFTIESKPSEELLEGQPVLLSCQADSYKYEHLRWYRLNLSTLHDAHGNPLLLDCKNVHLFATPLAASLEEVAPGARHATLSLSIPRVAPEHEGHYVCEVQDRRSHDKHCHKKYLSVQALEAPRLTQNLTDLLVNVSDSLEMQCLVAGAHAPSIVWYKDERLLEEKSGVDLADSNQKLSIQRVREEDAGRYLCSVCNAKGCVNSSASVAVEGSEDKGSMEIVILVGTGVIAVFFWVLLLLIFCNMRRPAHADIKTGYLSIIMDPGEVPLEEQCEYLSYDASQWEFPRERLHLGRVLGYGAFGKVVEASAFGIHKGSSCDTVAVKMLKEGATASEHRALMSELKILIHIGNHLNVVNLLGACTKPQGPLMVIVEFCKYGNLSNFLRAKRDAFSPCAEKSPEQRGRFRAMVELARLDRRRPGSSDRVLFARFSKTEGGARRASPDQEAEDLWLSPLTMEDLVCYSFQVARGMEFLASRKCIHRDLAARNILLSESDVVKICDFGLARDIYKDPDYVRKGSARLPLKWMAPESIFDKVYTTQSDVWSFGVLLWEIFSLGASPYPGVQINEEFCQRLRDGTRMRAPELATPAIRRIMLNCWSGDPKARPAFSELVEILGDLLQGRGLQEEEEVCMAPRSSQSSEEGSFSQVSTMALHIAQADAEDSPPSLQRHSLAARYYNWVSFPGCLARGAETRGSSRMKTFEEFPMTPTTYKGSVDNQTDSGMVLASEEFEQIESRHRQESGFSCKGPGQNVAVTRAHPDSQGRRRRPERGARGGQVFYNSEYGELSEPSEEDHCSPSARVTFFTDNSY
Excerpt: as §2, §3, §4, §5

[1] = Solubility test in buffer, LC-MS; assay type: physicochemical; conditions: aqueous buffer, thermodynamic from solid, room temperature, shaking 8 h, pH not given (method: pH 2.0, 6.5, 7.4)
Description: Accurately weigh 3 portions of about 2 mg of the compound, and add appropriate volumes of buffers with the pHs of 2.0, 6.5, and 7.4 respectively to obtain a solution with a concentration of 2 mg/mL. After sonication for 10 min, fix them on a shaker and shaking for 8 h at room temperature. After shaking, sonicate for 10 min and centrifuge for 15 min at 13,000 rpm. Pipette 0.1 mL of supernatant into a new tube, shake and rinse it with 5 mL, and discard the liquid. Transfer 0.5 mL of the supernatant again to a new tube, centrifuge it for 15 min at 13,000 rpm, then collect the supernatant (if necessary, dilute with water) and analyze it by LC-MS. The sample concentrations at 3~5 points are subjected to fitting and reticle for quantification.

T1 sequence (Q02763 23-1124): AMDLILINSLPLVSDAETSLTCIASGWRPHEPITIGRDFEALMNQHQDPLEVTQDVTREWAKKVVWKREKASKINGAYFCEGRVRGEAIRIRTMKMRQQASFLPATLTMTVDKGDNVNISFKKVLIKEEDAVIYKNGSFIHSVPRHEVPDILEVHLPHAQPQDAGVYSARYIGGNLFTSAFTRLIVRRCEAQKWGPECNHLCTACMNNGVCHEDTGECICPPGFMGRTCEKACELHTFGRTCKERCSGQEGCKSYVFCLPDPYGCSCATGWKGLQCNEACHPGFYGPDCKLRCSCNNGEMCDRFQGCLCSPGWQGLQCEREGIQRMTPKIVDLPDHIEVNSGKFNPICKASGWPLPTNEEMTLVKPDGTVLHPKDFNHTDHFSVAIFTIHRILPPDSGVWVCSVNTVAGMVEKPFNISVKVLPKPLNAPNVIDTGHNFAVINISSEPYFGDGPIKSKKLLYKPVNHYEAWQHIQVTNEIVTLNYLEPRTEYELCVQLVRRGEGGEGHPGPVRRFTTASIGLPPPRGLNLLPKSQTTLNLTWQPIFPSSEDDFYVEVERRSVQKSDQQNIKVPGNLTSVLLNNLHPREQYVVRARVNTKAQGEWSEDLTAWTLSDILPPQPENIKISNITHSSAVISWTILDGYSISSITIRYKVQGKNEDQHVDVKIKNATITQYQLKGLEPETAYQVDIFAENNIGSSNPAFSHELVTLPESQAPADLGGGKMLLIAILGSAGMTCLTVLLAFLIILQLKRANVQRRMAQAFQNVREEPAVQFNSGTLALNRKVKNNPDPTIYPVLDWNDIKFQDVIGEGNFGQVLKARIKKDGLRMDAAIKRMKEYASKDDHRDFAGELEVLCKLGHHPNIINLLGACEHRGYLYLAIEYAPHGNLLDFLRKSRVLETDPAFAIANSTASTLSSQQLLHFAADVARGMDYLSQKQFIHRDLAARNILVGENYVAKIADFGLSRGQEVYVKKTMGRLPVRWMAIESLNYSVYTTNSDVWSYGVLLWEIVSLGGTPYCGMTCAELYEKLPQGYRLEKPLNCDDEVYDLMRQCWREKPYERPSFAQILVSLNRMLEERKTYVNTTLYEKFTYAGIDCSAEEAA

Row | Structure (SMILES) | IC50 (TIE2) | IC50 (EGFR) | fraction unbound at 2 h, 2 μM (melanin) | IC50 (VEGFR2) | IC50 (VEGFR1) | IC50 (VEGFR3) | solubility at 8 h [1] | IC50 (HUVEC cells)
1 | CNC(=O)c1cc(COc2nsc(NC(=O)NCCCCN3CCCC3)c2C(N)=O)ccc1F [Compound T070, 3-((4-fluoro-3-(methylcarbamoyl)benzyl)oxy)-5-(3-(4-(pyrrolidin-1-yl)butyl)ureido)isothiazole-4-carboxamide] | 7800 nM | > 60000 nM |  | 12 nM | 9.14 nM | 50.1 nM | 927 µg/mL (≈ 1880 µM) | 
2 | CN1CCN(CCCNC(=O)Nc2snc(OCc3cccc(C(=O)NC4CC4)c3)c2C(N)=O)CC1 [Compound T069, 3-((3-(cyclopropylcarbamoyl)benzyl)oxy)-5-(3-(3-(4-methylpiperazin-1-yl)propyl)ureido)isothiazole-4-carboxamide] | 3510 nM | > 60000 nM |  | 2.77 nM | 5.48 nM | 14.6 nM | 633 µg/mL (≈ 1230 µM) | 
3 | NC(=O)c1c(OCc2cccc(C(=O)NC3CC3)c2)nsc1NC(=O)NCCCCN1CCCC1 [Compound T056, 3-((3-(cyclopropylcarbamoyl)benzyl)oxy)-5-(3-(4-(pyrrolidin-1-yl)butyl)ureido)isothiazole-4-carboxamide] |  | 50600 nM | 0.0183 | 4.69 nM | 3.33 nM | 13.2 nM | 2000 µg/mL (≈ 4000 µM) | 
4 | CN1CCN(CCNC(=O)Nc2snc(OCc3cccc(C(=O)NC4CC4)c3)c2C(N)=O)CC1 [Compound T065, 3-((3-(cyclopropylcarbamoyl)benzyl)oxy)-5-(3-(2-(4-methylpiperazin-1-yl)ethyl)ureido)isothiazole-4-carboxamide] | 5430 nM | ≥ 60000 nM |  | 9.95 nM | 6.55 nM | 24.1 nM | 782 µg/mL (≈ 1560 µM) | 

Further compounds by falling IC50 (EGFR), results first:

Row | IC50 (TIE2) | IC50 (EGFR) | fraction unbound at 2 h, 2 μM (melanin) | IC50 (VEGFR2) | IC50 (VEGFR1) | IC50 (VEGFR3) | solubility at 8 h [1] | Structure (SMILES) | IC50 (HUVEC cells)
5 | 3360 nM | 49700 nM |  | 15.7 nM | 7.7 nM | 39.3 nM | 144 µg/mL (≈ 303 µM) | CNC(=O)c1cccc(COc2nsc(NC(=O)NCCC3CCN(C)CC3)c2C(N)=O)c1 [Compound T055, 3-((3-(methylcarbamoyl)benzyl)oxy)-5-(3-(2-(1-methylpiperidin-4-yl)ethyl)ureido)isothiazole-4-carboxamide] | 
6 | 205 nM | 19900 nM | 0.0202 |  |  |  |  | NC(=O)c1c(OCc2cc3c(cc2F)CCO3)nsc1NC(=O)NCCCN1CC[C@H](F)C1 [Compound T119, 3-[(5-fluoro-2,3-dihydrobenzofuran-6-yl)methoxy]-5-[3-[(3S)-3-fluoropyrrolidin-1-yl]propylcarbamoylamino]isothiazole-4-carboxamide] | 67 nM
7 | 129 nM | 10200 nM | 0.0222 | 14.6 nM |  |  |  | COc1ccc(F)c(COc2nsc(NC(=O)NCCC3CCN(CCF)CC3)c2C(N)=O)c1F [Compound T112, 3-[(2,6-difluoro-3-methoxy-phenyl)methoxy]-5-[2-[1-(2-fluoroethyl)-4-piperidyl]ethylcarbamoylamino]isothiazole-4-carboxamide] | 36 nM
8 | 117 nM | 8220 nM | 0.0148 | 7.2 nM |  |  |  | NC(=O)c1c(OCc2cc3c(cc2F)CCO3)nsc1NC(=O)NCCCCN1CC[C@H](F)C1 [Compound T115, 3-[(5-fluoro-2,3-dihydrobenzofuran-6-yl)methoxy]-5-[4-[(3S)-3-fluoropyrrolidin-1-yl]butylcarbamoylamino]isothiazole-4-carboxamide] | 36 nM
9 | 94.5 nM | 5490 nM | 0.0229 | 4.96 nM |  |  |  | NC(=O)c1c(OCc2cc3c(cc2F)CCO3)nsc1NC(=O)NCCC1CCN(CCF)CC1 [Compound T103, 3-[(5-fluoro-2,3-dihydrobenzofuran-6-yl)methoxy]-5-[2-[1-(2-fluoroethyl)-4-piperidyl]ethylcarbamoylamino]isothiazole-4-carboxamide] | 66 nM
